In US10687525B2, “Enhancement of cell cryopreservation with glycolipids” (TISSUE TESTING TECHNOLOGIES LLC, priority 2016, dated 2020):

System: keratinocytes
Test: Cell viability of keratinocytes after cryopreservation in 10% DMSO in RPMI (alamarBlue)
Format: cell-based
Conditions: keratinocytes cryopreserved in vials or culture plates in 10% DMSO in RPMI
Procedure: In the results discussed below, measurement of Cell Viability and Proliferation in FIGS. 1-4 employed AlamarBlue™ by measuring the oxidation/reduction reactions that take place within cells. AlamarBlue™ was added directly to the plates containing cultured cells in culture medium and incubated for 3 hours at 37° C. Upon reduction, AlamarBlue™ changes color and this color change can be measured and quantified. The culture plates were read using a Gemini EM fluorescent microplate reader ([…]) at an excitation wavelength of 544 nm and an emission wavelength of 590 nm. […] Keratinocytes were cryopreserved in vials or in culture plates in 10% DMSO in RPMI. Metabolic activity was measured immediately after thawing and for several days post thaw. Cell viability (in percent of untreated controls) was calculated as the mean (±SEM) of 120 replicates.

**Q.** With C[S+](C)[O-] [DMSO, dimethyl sulfoxide] as the compound, how does the “cell yields after cryopreservation (cell viability in percent of untreated controls)” value read?
**A.** Its value is “below 50%”.
